Assay results from ChEMBL document CHEMBL1126503, “Syntheis of TRP-VAL non-cleavable dipeptide transition state isosteres” (Bioorg Med Chem Lett, 1993).
Activity calls are given as the source filed them. The calls are words filed in the database; no cut-off is given here.

test system: Endothelial cell; experiment: Tested for inhibition of Endothelin-converting enzyme derived from bovine endothelial cell; NA means inactive uM; assay type: cell-based

Compound	inhibition
COC(=O)[C@@H](NC(=O)[C@H](CC(N)=O)NC(=O)/C(=C\C(=O)[C@H](Cc1c[nH]c2ccccc12)NC(=O)OC(C)(C)C)C(C)C)C(C)C(=O)C(C)(C)C (stereo partly drawn)	inactive
CC(C)/C(=C/C(=O)[C@H](Cc1c[nH]c2ccccc12)NC(=O)OC(C)(C)C)C(=O)O	inactive
CCOC(=O)/C(=C/C(=O)[C@H](Cc1c[nH]c2ccccc12)NC(=O)OC(C)(C)C)C(C)C	inactive
